From patent US6071954A, “(methylsulfonyl)phenyl-2-(5H)-furanones with oxygen link as COX-2 inhibitors” (Merk Frosst Canada, Inc., priority 1998, dated 2000)

Assays:
[1] = molecular target: T1, COX-2 (Homo sapiens, UniProt P35354); assay: Human whole blood assay, COX-2 (LPS-induced PGE2 production); assay type: cell-based; design: incubation of human whole blood with LPS, which induces COX-2; endogenous in cells; host or cells: fresh heparinized whole blood of human volunteers, LPS-stimulated; conditions: LPS-induced PGE2, 24 hours at 37° C, read-out: COX-2 (IC50) HWB
T1 sequence (P35354 18-604): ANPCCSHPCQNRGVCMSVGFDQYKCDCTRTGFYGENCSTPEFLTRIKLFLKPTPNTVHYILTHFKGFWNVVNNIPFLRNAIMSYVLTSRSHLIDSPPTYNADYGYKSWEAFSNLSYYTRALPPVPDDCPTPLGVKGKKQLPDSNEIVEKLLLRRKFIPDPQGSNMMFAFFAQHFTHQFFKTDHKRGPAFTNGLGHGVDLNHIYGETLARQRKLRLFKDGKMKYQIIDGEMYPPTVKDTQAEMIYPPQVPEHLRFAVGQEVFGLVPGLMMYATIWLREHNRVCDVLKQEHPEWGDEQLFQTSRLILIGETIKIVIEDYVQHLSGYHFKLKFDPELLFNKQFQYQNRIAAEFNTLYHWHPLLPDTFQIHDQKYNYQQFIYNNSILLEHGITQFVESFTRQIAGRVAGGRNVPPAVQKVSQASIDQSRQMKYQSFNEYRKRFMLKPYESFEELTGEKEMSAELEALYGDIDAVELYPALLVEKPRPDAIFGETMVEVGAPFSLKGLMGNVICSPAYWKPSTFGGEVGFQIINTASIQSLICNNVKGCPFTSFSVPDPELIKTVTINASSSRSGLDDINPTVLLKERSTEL
From the text: As well, platelets in whole blood contain a large amount of the COX-1 enzyme. Immediately following blood clotting, platelets are activated through a thrombin-mediated mechanism. This reaction results in the production of thromboxane B2 (TxB2) via activation of COX-1. Thus, the effect of test compounds on TxB2 levels following blood clotting can be examined and used as an index for COX-1 activity. Therefore, the degree of selectivity by the test compound can be determined by measuring the levels of PGE2 after LPS induction (COX-2) and TxB2 following blood clotting (COX-1) in the same assay. A. COX-2 (LPS-induced PGE2 production) Fresh blood is collected in heparinized tubes by venipuncture from both male and female volunteers. The subjects have no apparent inflammatory conditions and have not taken any NSAIDs for at least 7 days prior to blood collection. Plasma is immediately obtained from a 2 mL blood aliquot to use as blank (basal levels of PGE2). […] The supernatant is obtained and is assayed for PGE2 using a radioimmunoassay kit (Amersham, RPA#530) after conversion of PGE2 to its methyl oximate derivative according to the manufacturer's procedure.

[2] = molecular target: T1, COX-2; assay: Whole cell assay for COX-2 using CHO transfected cell lines (CHO[hCOX-2]); assay type: cell-based; design: expressed in transfected cells; CHO[hCOX-2]; conditions: CHO[hCOX-2] cells, PGE2 synthesis in response to arachidonic acid
Method: Compounds are tested as inhibitors of cyclooxygenase activity in whole cell cyclooxygenase assays. These assays measure prostaglandin E2 synthesis in response to arachidonic acid, using a radioimmunoassay. Cells used for these assays are chinese hamster ovary (CHO) cell lines which have been stably transfected with an eukaryotic expression vector […] containing either the human Cox-1 or Cox-2 CDNA's. U937 cell microsomes are also used to measure Cox-1 activity.
Chinese hamster ovary (CHO) cell lines which have been stably transfected with an eukaryotic expression vector pCDNAIII containing either the human COX-1 or COX-2 cDNA's are used for the assay. These cell lines are referred to as CHO [hCOX-1] and CHO [hCOX-2], respectively. […] Drugs to be tested are dissolved in DMSO to 66.7-fold the highest test drug concentration. […] Cells (0.3×10^6 cells in 200 μl) are preincubated with 3 μl of the test drug or DMSO vehicle for 15 min at 37° C.
In the assay, inhibition is determined by measuring the amount of prostaglandin E2 (PGE2) synthesized in the presence of arachidonic acid, cyclooxygenase-1 or cyclooxygenase-2 and a putative inhibitor.

[3] = test system: Rat Paw Edema; assay: Rat paw edema assay (carrageenan); assay type: in vivo, rat (male Sprague-Dawley); conditions: po, 1 hr before carrageenan, paw volume 3 hr later
Method: Male Sprague-Dawley rats (150-200 g) are fasted overnight and are given, po, either vehicle (1% methocel or 5% Tween 80) or a test compound. One hr later, a line is drawn using a permanent marker at the level above the ankle in one hind paw to define the area of the paw to be monitored. The paw volume (V0) is measured using a plethysmometer (Ugo-Basile, Italy) based on the principle of water displacement. The animals are then injected subplantarly with […] of 1% carrageenan solution in saline (FMC Corp, Maine) into the paw using an insulin syringe with a 25-gauge needle (i.e. […] carrageenan per paw). Three hr later, the paw volume (V3) is measured and the increases in paw volume (V3 -V0) are calculated. The animals are sacrificed by CO2 asphyxiation and the absence or presence of stomach lesions scored. Data is compared with the vehicle-control values and percent inhibition calculated. All treatment groups are coded to eliminate observer bias.

What does the source list for `C[C@H](O)[C@@H](C)OC1=C(c2ccc(S(C)(=O)=O)cc2)C(C)(C)OC1=O` (relative stereo) [Example 4]?
IC50 [1]: 900 nM; IC50 [2]: 600 nM

With `CC1(C)OC(=O)C(OC(C(F)(F)F)C(F)(F)F)=C1c1ccc(S(C)(=O)=O)cc1` [Example 2, 5,5-Dimethyl-3-(1,1,1,3,3,3-hexafluoropropoxy)-4-(4-methylsulfonylphenyl)-5H-furan-2-one] as the compound, how does the ED50 [3] read?
The ED50 was 1 mg/kg.

Which ED50 [3] does the source give for `CC1(C)OC(=O)C(OC2CCC(F)(F)CC2)=C1c1ccc(S(C)(=O)=O)cc1` [Example 17] here?
The ED50 was 0.9 mg/kg.
